Read-outs that look alike come from different tables or passages of the source.
Columns and labels:
[1] = system: patients with advanced solid tumors; assay: Safety: adverse events graded by NCI CTCAE v3.0; type: in vivo
Description: (§1) The phase I dose-escalation portion of the study followed the standard 3 + 3 design. Patients were enrolled at two sites in sequential cohorts of 3–6 patients each to establish the MTD. The MTD was defined as the highest dose up to the MPD at which […] of six patients experienced treatment-related dose-limiting toxicities (DLT) during the first cycle. DLTs were defined as treatment-related ≥grade 2 neuropathy with pain, ≥grade 3 non-hematologic toxicity, grade 4 neutropenia or thrombocytopenia lasting 7 or more days, or thrombocytopenia with bleeding. Toxicity was graded according to NCI CTCAE v3.0 [19].
(§2) All patients who received at least one dose of study treatment were evaluable for the safety analysis. After the initiation of carfilzomib, adverse events (AEs) were evaluated at each visit. Patients completed a comprehensive neurologic evaluation and radiographic assessment of tumor burden using computerized tomography (CT) at baseline and every 8 weeks for the first 24 weeks, then every 12 weeks thereafter or at treatment discontinuation. Patients who received at least one cycle of treatment and had both baseline and post-baseline disease assessments were evaluable for efficacy. Treatment response was assessed according to RECIST 1.0 [18]. Patients with stable disease (SD) or an objective response (CR or PR) after two cycles continued treatment until disease progression or unacceptable toxicity.

[2] = system: patients with advanced solid tumors; assay: Phase I dose escalation (3 + 3): DLT and MTD determination; type: in vivo
Experimental: Carfilzomib (Onyx Pharmaceuticals, Inc, South San Francisco, CA) was administered by intravenous infusion over 2–10 min on days 1, 2, 8, 9, 15, and 16 of a 28-day cycle. For the phase I dose-escalation portion, the starting dose in all cohorts for days 1 and 2 of cycle 1 was 20 mg/m^2, based on the tolerated dose identified in hematologic malignancies. On all remaining cycle 1 dosing days (days 8, 9, 15, and 16) and in all subsequent cycles, carfilzomib was administered at a dose of 20 mg/m^2 in cohort 1 (20/20 mg/m^2), 27 mg/m^2 in cohort 2 (20/27 mg/m^2), and 36 mg/m^2 in cohort 3 (20/36 mg/m^2). Stepped-up dosing in cycle 1 and dexamethasone premedication were adopted to abrogate fever, chills and/or rigors, and dyspnea, all of which were […] observed during initial therapy in MM trials. Dexamethasone 4 mg (intravenous or oral) was administered prior to each carfilzomib dose for the first cycle and during subsequent cycles when indicated. Upon completion of 12 treatment cycles, patients had the option of enrolling in an open-label extension study, PX-171-010 (NCT00884312).
as §1

[3] = system: proteasome chymotrypsin-like (CT-L) activity in whole blood and PBMCs; assay: Pharmacodynamics: proteasome CT-L activity, fluorogenic LLVY-AMC substrate assay; type: in vivo, human; conditions: for Median proteasome inhibition / proteasome inhibition, range: day 1 of cycle 2
Experimental: Whole blood was collected on day 1 of the first two cycles prior to and 1 h after infusion for measurement of proteasome activity in whole blood and peripheral blood mononuclear cells (PBMCs). CT-L activity was assessed using a fluorogenic substrate assay with succinyl–Leu–Leu–Val–Tyr–AMC (LLVY) as previously described.

[4] = system: advanced solid tumors; assay: Antitumor activity, treatment response by RECIST 1.0; type: in vivo, human
Experimental: The primary objective of the phase I dose-escalation portion of the study was to determine the maximum tolerated dose (MTD) of carfilzomib up to a maximum planned dose (MPD) of 20/36 mg/m^2. The primary objective of the expansion (various tumor types) and phase II tumor-specific portions was to determine the disease control rate [DCR = complete response (CR) + partial response (PR) + stable disease (SD)] as defined by RECIST 1.0 [18] after four cycles of treatment at the MTD or MPD. Secondary objectives included pharmacokinetics (PK) and pharmacodynamics (PDn) of carfilzomib.
Once dose escalation was completed, an additional 11 evaluable patients with assorted tumor types could enroll in the expansion cohort to receive carfilzomib at the MTD/MPD. In the phase II tumor-specific portion of the study, cohorts of patients with NSCLC, SCLC, ovarian cancer, and renal cancer were to be treated at the MTD/MPD utilizing a Simon two-stage design. Tumor types included in the phase II tumor-specific cohorts were selected based on efficacy results from the phase I dose-escalation portion and preclinical data.
as §2
Continuous and categorical data were summarized with descriptive statistics or frequencies and percentages, respectively. For the phase II tumor-specific portion, the Simon two-stage sample size calculation applied a null hypothesis objective response rate (ORR = CR + PR) of 2 % and an alternative hypothesis ORR of 15 %, with the type I error at 5 % and a power of 0.8. For stage 1, 11 evaluable patients were to be enrolled in each of the four solid tumor cohorts. […] Because there were multiple study sites, over enrollment was permitted.

[5] = human, in vivo, 20 mg/m2
Experimental: (§3) Serial blood samples were collected on days 1 and 16 of cycle 1 and day 16 of cycle 2 as follows: predose, immediately post-dose, and then at 5, 15, and 30 min, and 1, 2, and 4 h post-dose. Plasma samples for PK studies were assayed using validated liquid chromatography/mass spectrometry with a lower limit of detection of 0.10 ng/ml [17].
(§4) Pharmacokinetic parameters were estimated by non-compartmental analysis using WinNonlin Enterprise Version 5.2 (Pharsight Inc., Mountain View, CA).

[6] = system: human solid tumor xenograft model; parameters: method as in PMID 17616698; conditions: consecutive-day dosing; cited from earlier work
[7] = system: solid tumor cell lines; parameters: method as in PMID 17616698; conditions: 1-h pulse, replicating clinical pharmacokinetics; cited from earlier work
[8] = system: proteasome in PBMCs; parameters: method as in PMID 22761464; conditions: 20/27 mg/m^2, patients with hematologic malignancies; cited from earlier work
[9] = clinical; conditions: human, in vivo
Experimental: as §3, §4

[10] = system: patients with MM; conditions: human, in vivo, iv; cited from earlier work
[11] = 20 mg/m^2, one hour after administration
[12] = 27 mg/m^2, one hour after administration
[13] = 36 mg/m^2, one hour after administration

CC(C)C[C@H](NC(=O)[C@H](CCc1ccccc1)NC(=O)CN1CCOCC1)C(=O)N[C@@H](Cc1ccccc1)C(=O)N[C@@H](CC(C)C)C(=O)[C@@]1(C)CO1 [carfilzomib]
AE: fatigue ([1]; human, in vivo): 35.7%
AE: headache ([1]; human, in vivo): 42.9%
AE: hypokalemia ([1]; human, in vivo): 35.7%
patients who discontinued due to AEs ([1]; human, in vivo): 14.3%
patients who discontinued due to an AE ([1]; human, in vivo): 10.8%
patients who missed at least one carfilzomib dose due to AEs ([1]; human, in vivo): 29.2%
patients with carfilzomib dose reduced due to AEs of elevated blood creatinine/decreased CrCl ([1]; human, in vivo): 12.3%
carfilzomib dose reduced due to AEs ([1]; in vivo): No patients
deaths considered related to carfilzomib ([1]; on study or within 30 days of ending treatment): No deaths
MPD recommended for the expansion and phase II tumor-specific portions ([2]; human, in vivo, iv, 28 days): 20/36
dose-limiting toxicities (DLT) ([2]; in vivo): no DLTs
maximum tolerated dose (MTD) ([2]; phase I dose-escalation portion, up to the MPD of 20/36 mg/m^2): No MTD was identified
Median proteasome inhibition [3, 11]: 83.4%
proteasome inhibition, range [3, 11]: 82.9–85.5%
Median proteasome inhibition [3, 12]: 91.6%
proteasome inhibition, range [3, 12]: 79.0–93.2%
Median proteasome inhibition [3, 13]: 88.6%
proteasome inhibition, range [3, 13]: 54.7–99.4%
recovery of proteasome activity by the start of the second cycle ([3]; PBMCs): there was recovery
recovery of constitutive proteasome activity between cycles ([3]; whole blood): Minimal recovery
inhibition of proteasome CT-L activity ([3]; whole blood and PBMCs, one hour after administration on day 1 of cycle 2, all doses): at least 80%
PD as best response ([4]; expansion and phase II patients, 29/51, 20/36 mg/m^2): 56.9%
patients with SD for 6 months or longer ([4]; expansion and phase II tumor-specific cohorts, 20/36 mg/m^2): four
patients with SD after two cycles ([4]; expansion and phase II tumor-specific cohorts, 22 of 51 evaluable patients, 20/36 mg/m^2): 43.1%
PR or better ([4]; expansion and phase II tumor-specific cohorts, 51 evaluable patients, 20/36 mg/m^2, after four cycles or over the study period): No patients
reduction in tumor burden ([4]; one patient with renal cancer, 20/36 mg/m^2, after five cycles): > 80%
progressive disease (PD) ([4]; phase I dose-escalation portion, 12 evaluable patients): eight
confirmed partial response (PR) ([4]; phase I dose-escalation portion, 20/36 mg/m^2, 12 evaluable patients): two
AUClast [5]: 269 ± 61.7 ng·h/mL
CL [5]: 136 ± 52.8 L/h
Cmax [5]: 3410 ± 51.5 ng/mL
antitumor activity compared with bortezomib or carfilzomib dosed on days 1 and 4 [6]: more effective antitumor activity
potency at killing solid tumor cell lines compared with bortezomib [7]: more potent than bortezomib
proteasome inhibition [8]: > 90%
AUC(0-t) ([9]; 20 mg/m2, AUClast): 251 ± 92 ng·h/mL
clearance ([9]; 20 mg/m2, CL): 4380 mL/min
Cmax ([9]; 20 mg/m2, Cmax): 2390 ± 104 ng/mL
AUC(0-t) ([9]; 27 mg/m2, AUClast): 379 ± 24.8 ng·h/mL
clearance ([9]; 27 mg/m2, CL): 2500 mL/min
Cmax ([9]; 27 mg/m2, Cmax): 4230 ± 48.8 ng/mL
Vd ([9]; 27 mg/m2, V ss): 11.1 ± 4.45 L
half-life ([9]; 27 mg/m2, t 1/2): 21 min
AUC(0-t) ([9]; 36 mg/m2, AUClast): 594 ± 52.5 ng·h/mL
clearance ([9]; 36 mg/m2, CL): 1930 mL/min
Cmax ([9]; 36 mg/m2, Cmax): 5718 ± 46.5 ng/mL
Vd ([9]; 36 mg/m2, V ss): 9.33 ± 4.8 L
half-life ([9]; 36 mg/m2, t 1/2): 52.2 min
half-life ([9]; iv, half-life): < 60 min
tolerable dose [10]: 20/27

From PMC3784064, “A phase I/II study of carfilzomib 2–10-min infusion in patients with advanced solid tumors” (Cancer Chemotherapy and Pharmacology, 2013)
